{"source": "PubChem BioAssay (NCI)", "test_in_all_cases": "NCI anticancer screen, dose series, 384-well format", "key": {"786-0 renal": {"tested_on": "786-0 renal"}, "A498 renal": {"tested_on": "A498 renal"}, "A549 NSCLC": {"tested_on": "A549 NSCLC"}, "ACHN renal": {"tested_on": "ACHN renal"}, "BT-549 breast": {"tested_on": "BT-549 breast"}, "CAKI-1 renal": {"tested_on": "CAKI-1 renal"}, "CCRF-CEM leukemia": {"tested_on": "CCRF-CEM leukemia"}, "EKVX NSCLC": {"tested_on": "EKVX NSCLC"}, "HCC-2998 colon": {"tested_on": "HCC-2998 colon"}, "HCT-116 colon": {"tested_on": "HCT-116 colon"}, "HL-60(TB) leukemia": {"tested_on": "HL-60(TB) leukemia"}, "HOP-62 NSCLC": {"tested_on": "HOP-62 NSCLC"}, "HOP-92 NSCLC": {"tested_on": "HOP-92 NSCLC"}, "HS 578T breast": {"tested_on": "HS 578T breast"}, "HT29 colon": {"tested_on": "HT29 colon"}, "IGROV1 ovarian": {"tested_on": "IGROV1 ovarian"}, "K-562 leukemia": {"tested_on": "K-562 leukemia"}, "KM12 colon": {"tested_on": "KM12 colon"}, "LOX IMVI melanoma": {"tested_on": "LOX IMVI melanoma"}, "M14 melanoma": {"tested_on": "M14 melanoma"}, "MALME-3M melanoma": {"tested_on": "MALME-3M melanoma"}, "MCF7 breast": {"tested_on": "MCF7 breast"}, "MDA-MB-231 breast": {"tested_on": "MDA-MB-231 breast"}, "MDA-MB-435 melanoma": {"tested_on": "MDA-MB-435 melanoma"}, "MDA-MB-468 breast": {"tested_on": "MDA-MB-468 breast"}, "MOLT-4 leukemia": {"tested_on": "MOLT-4 leukemia"}, "NCI-H226 lung": {"tested_on": "NCI-H226 lung"}, "NCI-H23 lung": {"tested_on": "NCI-H23 lung"}, "NCI-H322M lung": {"tested_on": "NCI-H322M lung"}, "NCI-H460 NSCLC": {"tested_on": "NCI-H460 NSCLC"}, "NCI-H522 lung": {"tested_on": "NCI-H522 lung"}, "OVCAR-3 ovarian": {"tested_on": "OVCAR-3 ovarian"}, "OVCAR-4 ovarian": {"tested_on": "OVCAR-4 ovarian"}, "PC-3 prostate": {"tested_on": "PC-3 prostate"}, "RXF 393 renal": {"tested_on": "RXF 393 renal"}, "SF-268 CNS": {"tested_on": "SF-268 CNS"}, "SF-295 CNS": {"tested_on": "SF-295 CNS"}, "SF-539 CNS": {"tested_on": "SF-539 CNS"}, "SK-MEL-28 melanoma": {"tested_on": "SK-MEL-28 melanoma"}, "SK-MEL-5 melanoma": {"tested_on": "SK-MEL-5 melanoma"}, "SNB-19 CNS": {"tested_on": "SNB-19 CNS"}, "SNB-75 CNS": {"tested_on": "SNB-75 CNS"}, "SR leukemia": {"tested_on": "SR leukemia"}, "T-47D breast": {"tested_on": "T-47D breast"}, "TK-10 renal": {"tested_on": "TK-10 renal"}, "UACC-257 melanoma": {"tested_on": "UACC-257 melanoma"}, "UO-31 renal": {"tested_on": "UO-31 renal"}}, "note": "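The concentration for 50% growth inhibition is given as GI50. TGI: total growth inhibition.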"}
{"smiles": "Cn1cc(-c2ccc3c(c2)CCN3C(=O)Cc2cccc(C(F)(F)F)c2)c2c(N)ncnc21", "values": [{"measurement": "GI50", "setting": "786-0 renal", "result": 3.99, "unit": "µM"}, {"measurement": "TGI", "setting": "786-0 renal", "result": 16.2, "unit": "µM"}, {"measurement": "GI50", "setting": "A498 renal", "result": 0.967, "unit": "µM"}, {"measurement": "TGI", "setting": "A498 renal", "result": 17.7, "unit": "µM"}, {"measurement": "GI50", "setting": "A549 NSCLC", "result": 6.71, "unit": "µM"}, {"measurement": "TGI", "setting": "A549 NSCLC", "result": "> 61.4", "unit": "µM"}, {"measurement": "GI50", "setting": "ACHN renal", "result": 2.25, "unit": "µM"}, {"measurement": "TGI", "setting": "ACHN renal", "result": 19.8, "unit": "µM"}, {"measurement": "GI50", "setting": "BT-549 breast", "result": 5, "unit": "µM"}, {"measurement": "TGI", "setting": "BT-549 breast", "result": 17.6, "unit": "µM"}, {"measurement": "GI50", "setting": "CAKI-1 renal", "result": 2.14, "unit": "µM"}, {"measurement": "TGI", "setting": "CAKI-1 renal", "result": 12.8, "unit": "µM"}, {"measurement": "GI50", "setting": "CCRF-CEM leukemia", "result": 2.75, "unit": "µM"}, {"measurement": "TGI", "setting": "CCRF-CEM leukemia", "result": 7.98, "unit": "µM"}, {"measurement": "GI50", "setting": "EKVX NSCLC", "result": 3.03, "unit": "µM"}, {"measurement": "TGI", "setting": "EKVX NSCLC", "result": 16.2, "unit": "µM"}, {"measurement": "GI50", "setting": "HCC-2998 colon", "result": 15.5, "unit": "µM"}, {"measurement": "TGI", "setting": "HCC-2998 colon", "result": 29.6, "unit": "µM"}, {"measurement": "GI50", "setting": "HCT-116 colon", "result": 4.12, "unit": "µM"}, {"measurement": "TGI", "setting": "HCT-116 colon", "result": 17.1, "unit": "µM"}, {"measurement": "GI50", "setting": "HL-60(TB) leukemia", "result": 2.21, "unit": "µM"}, {"measurement": "TGI", "setting": "HL-60(TB) leukemia", "result": 6.42, "unit": "µM"}, {"measurement": "GI50", "setting": "HOP-62 NSCLC", "result": 10.8, "unit": "µM"}, {"measurement": "TGI", "setting": "HOP-62 NSCLC", "result": 30.3, "unit": "µM"}, {"measurement": "GI50", "setting": "HOP-92 NSCLC", "result": 3.52, "unit": "µM"}, {"measurement": "TGI", "setting": "HOP-92 NSCLC", "result": 13.3, "unit": "µM"}, {"measurement": "GI50", "setting": "HS 578T breast", "result": 1.7, "unit": "µM"}, {"measurement": "TGI", "setting": "HS 578T breast", "result": 7.47, "unit": "µM"}, {"measurement": "GI50", "setting": "HT29 colon", "result": 6.6, "unit": "µM"}, {"measurement": "TGI", "setting": "HT29 colon", "result": 19.6, "unit": "µM"}, {"measurement": "GI50", "setting": "IGROV1 ovarian", "result": 5.29, "unit": "µM"}, {"measurement": "TGI", "setting": "IGROV1 ovarian", "result": 49.9, "unit": "µM"}, {"measurement": "GI50", "setting": "K-562 leukemia", "result": 2.55, "unit": "µM"}, {"measurement": "TGI", "setting": "K-562 leukemia", "result": 11.4, "unit": "µM"}, {"measurement": "GI50", "setting": "KM12 colon", "result": 0.547, "unit": "µM"}, {"measurement": "TGI", "setting": "KM12 colon", "result": 18.2, "unit": "µM"}, {"measurement": "GI50", "setting": "LOX IMVI melanoma", "result": 5.67, "unit": "µM"}, {"measurement": "TGI", "setting": "LOX IMVI melanoma", "result": 18.2, "unit": "µM"}, {"measurement": "GI50", "setting": "M14 melanoma", "result": 5.69, "unit": "µM"}, {"measurement": "TGI", "setting": "M14 melanoma", "result": 21.5, "unit": "µM"}, {"measurement": "GI50", "setting": "MALME-3M melanoma", "result": 2.99, "unit": "µM"}, {"measurement": "TGI", "setting": "MALME-3M melanoma", "result": 13.7, "unit": "µM"}, {"measurement": "GI50", "setting": "MCF7 breast", "result": 5.82, "unit": "µM"}, {"measurement": "TGI", "setting": "MCF7 breast", "result": 20.3, "unit": "µM"}, {"measurement": "GI50", "setting": "MDA-MB-231 breast", "result": 4.91, "unit": "µM"}, {"measurement": "TGI", "setting": "MDA-MB-231 breast", "result": 15.6, "unit": "µM"}, {"measurement": "GI50", "setting": "MDA-MB-435 melanoma", "result": 8.32, "unit": "µM"}, {"measurement": "TGI", "setting": "MDA-MB-435 melanoma", "result": 29.8, "unit": "µM"}, {"measurement": "GI50", "setting": "MDA-MB-468 breast", "result": 2.86, "unit": "µM"}, {"measurement": "TGI", "setting": "MDA-MB-468 breast", "result": 10.7, "unit": "µM"}, {"measurement": "GI50", "setting": "MOLT-4 leukemia", "result": 2.15, "unit": "µM"}, {"measurement": "TGI", "setting": "MOLT-4 leukemia", "result": 5.04, "unit": "µM"}, {"measurement": "GI50", "setting": "NCI-H226 lung", "result": 3.82, "unit": "µM"}, {"measurement": "TGI", "setting": "NCI-H226 lung", "result": 18.1, "unit": "µM"}, {"measurement": "GI50", "setting": "NCI-H23 lung", "result": 4.28, "unit": "µM"}, {"measurement": "TGI", "setting": "NCI-H23 lung", "result": 15.9, "unit": "µM"}, {"measurement": "GI50", "setting": "NCI-H322M lung", "result": 5.96, "unit": "µM"}, {"measurement": "TGI", "setting": "NCI-H322M lung", "result": 27.7, "unit": "µM"}, {"measurement": "GI50", "setting": "NCI-H460 NSCLC", "result": 3.9, "unit": "µM"}, {"measurement": "TGI", "setting": "NCI-H460 NSCLC", "result": 16.5, "unit": "µM"}, {"measurement": "GI50", "setting": "NCI-H522 lung", "result": 8.97, "unit": "µM"}, {"measurement": "TGI", "setting": "NCI-H522 lung", "result": 21.5, "unit": "µM"}, {"measurement": "GI50", "setting": "OVCAR-3 ovarian", "result": 8.44, "unit": "µM"}, {"measurement": "TGI", "setting": "OVCAR-3 ovarian", "result": 21.6, "unit": "µM"}, {"measurement": "GI50", "setting": "OVCAR-4 ovarian", "result": 11.2, "unit": "µM"}, {"measurement": "TGI", "setting": "OVCAR-4 ovarian", "result": 25.1, "unit": "µM"}, {"measurement": "GI50", "setting": "PC-3 prostate", "result": 9.2, "unit": "µM"}, {"measurement": "TGI", "setting": "PC-3 prostate", "result": 22.6, "unit": "µM"}, {"measurement": "GI50", "setting": "RXF 393 renal", "result": 1.82, "unit": "µM"}, {"measurement": "TGI", "setting": "RXF 393 renal", "result": 8.86, "unit": "µM"}, {"measurement": "GI50", "setting": "SF-268 CNS", "result": 9.26, "unit": "µM"}, {"measurement": "TGI", "setting": "SF-268 CNS", "result": 23.8, "unit": "µM"}, {"measurement": "GI50", "setting": "SF-295 CNS", "result": 6.87, "unit": "µM"}, {"measurement": "TGI", "setting": "SF-295 CNS", "result": 20.5, "unit": "µM"}, {"measurement": "GI50", "setting": "SF-539 CNS", "result": 6.09, "unit": "µM"}, {"measurement": "TGI", "setting": "SF-539 CNS", "result": 19.2, "unit": "µM"}, {"measurement": "GI50", "setting": "SK-MEL-28 melanoma", "result": 12.5, "unit": "µM"}, {"measurement": "TGI", "setting": "SK-MEL-28 melanoma", "result": 37.3, "unit": "µM"}, {"measurement": "GI50", "setting": "SK-MEL-5 melanoma", "result": 3.86, "unit": "µM"}, {"measurement": "TGI", "setting": "SK-MEL-5 melanoma", "result": 9.56, "unit": "µM"}, {"measurement": "GI50", "setting": "SNB-19 CNS", "result": 15.3, "unit": "µM"}, {"measurement": "TGI", "setting": "SNB-19 CNS", "result": 42.9, "unit": "µM"}, {"measurement": "GI50", "setting": "SNB-75 CNS", "result": 3.52, "unit": "µM"}, {"measurement": "TGI", "setting": "SNB-75 CNS", "result": 14.2, "unit": "µM"}, {"measurement": "GI50", "setting": "SR leukemia", "result": 1.47, "unit": "µM"}, {"measurement": "TGI", "setting": "SR leukemia", "result": 3.54, "unit": "µM"}, {"measurement": "GI50", "setting": "T-47D breast", "result": 2.91, "unit": "µM"}, {"measurement": "TGI", "setting": "T-47D breast", "result": 9.03, "unit": "µM"}, {"measurement": "GI50", "setting": "TK-10 renal", "result": 7.63, "unit": "µM"}, {"measurement": "TGI", "setting": "TK-10 renal", "result": 26.1, "unit": "µM"}, {"measurement": "GI50", "setting": "UACC-257 melanoma", "result": 9.73, "unit": "µM"}, {"measurement": "TGI", "setting": "UACC-257 melanoma", "result": 31, "unit": "µM"}, {"measurement": "GI50", "setting": "UO-31 renal", "result": 6.72, "unit": "µM"}, {"measurement": "TGI", "setting": "UO-31 renal", "result": 28.4, "unit": "µM"}]}
